Where “and” joins values, the source holds several entries; their conditions need not be identical. Equal entries are not always repeated. Toxic doses and inconclusive results are not listed. No stated cut-off is given here; in the data, active means T/C of 150% or more; inactive means T/C below 125%.
Test system: L1210 leukemia ip in BDF1 mice, survival T/C
Experiment: NCI In Vivo Anticancer Drug Screen. Data for tumor model L1210 Leukemia (intraperitoneal) in B6D2F1 (BDF1) mice
Settings: endpoint: mean survival time, higher = longer survival
How it was run: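 Value reflects the ratio of survival in compound-treated mice to survival in vehicle-treated controls, with both groups carrying the same transplanted tumor.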

[1] = dose: 100.0 mg/kg/injection, schedule: Q04DX003 (ip), vehicle: saline
[2] = dose: 200.0 mg/kg/injection, schedule: Q04DX003 (ip), vehicle: saline
[3] = dose: 400.0 mg/kg/injection, schedule: Q04DX003 (ip), vehicle: saline
[4] = dose: 100.0 mg/kg/injection, schedule: Q04DX003 (ip), vehicle: Klucel (hydroxypropylcellulose) (HPC)
[5] = dose: 200.0 mg/kg/injection, schedule: Q04DX003 (ip), vehicle: Klucel (hydroxypropylcellulose) (HPC)
[6] = dose: 100.0 mg/kg/injection, schedule: Q04DX003 (ip), vehicle: saline with Tween-80
[7] = dose: 200.0 mg/kg/injection, schedule: Q04DX003 (ip), vehicle: saline with Tween-80
[8] = dose: 400.0 mg/kg/injection, schedule: Q04DX003 (ip), vehicle: saline with Tween-80
[9] = dose: 50.0 mg/kg/injection, schedule: Q01DX009 (ip), vehicle: saline
[10] = dose: 100.0 mg/kg/injection, schedule: Q01DX009 (ip), vehicle: saline with Tween-80
[11] = dose: 200.0 mg/kg/injection, schedule: Q01DX009 (ip), vehicle: saline with Tween-80
[12] = dose: 100.0 mg/kg/injection, schedule: Q01DX001 (ip), vehicle: saline
[13] = dose: 200.0 mg/kg/injection, schedule: Q01DX001 (ip), vehicle: saline
[14] = dose: 400.0 mg/kg/injection, schedule: Q01DX001 (ip), vehicle: saline
[15] = dose: 100.0 mg/kg/injection, schedule: Q01DX001 (ip), vehicle: other
[16] = dose: 200.0 mg/kg/injection, schedule: Q01DX001 (ip), vehicle: other
[17] = dose: 100.0 mg/kg/injection, schedule: Q01DX001 (ip), vehicle: saline with Tween-80
[18] = dose: 200.0 mg/kg/injection, schedule: Q01DX001 (ip), vehicle: saline with Tween-80
[19] = dose: 400.0 mg/kg/injection, schedule: Q01DX001 (ip), vehicle: saline with Tween-80

Measured: T/C

CC(=O)N1Cc2cc3ccccc3nc2C1
inactive: [1] 98 % of control | [2] 107 % of control | [3] 96 % of control

O=c1c(Cl)c(C(Cl)(Cl)Cl)c2ccccc2n1O
inactive: [4] 101 % of control | [5] 86 % of control

c1ccc(CN=C(c2ccccc2)c2ccccc2)cc1
inactive: dose: 100.0 mg/kg/injection, schedule: Q01DX009 (ip), vehicle: Klucel (hydroxypropylcellulose) (HPC) 101 % of control | [4] 104 % of control | dose: 200.0 mg/kg/injection, schedule: Q01DX009 (ip), vehicle: Klucel (hydroxypropylcellulose) (HPC) 95 % of control | [5] 96 % of control | dose: 400.0 mg/kg/injection, schedule: Q01DX009 (ip), vehicle: Klucel (hydroxypropylcellulose) (HPC) 106 % of control | dose: 400.0 mg/kg/injection, schedule: Q04DX003 (ip), vehicle: Klucel (hydroxypropylcellulose) (HPC) 98 % of control

CN(C)C(=O)Nc1cccc(OC(=O)NC2CCCC2)c1
inactive: [6] 100 % of control | [7] 95 % of control | [8] 100 % of control

Cc1ccc(NC(=O)Oc2ccc(C(C)(C)C)cc2Br)cc1NC(=O)Oc1ccc(C(C)(C)C)cc1Br
inactive: dose: 100.0 mg/kg/injection, schedule: Q01DX009 (ip), vehicle: other 87 % of control | dose: 200.0 mg/kg/injection, schedule: Q01DX009 (ip), vehicle: other 100 % of control | dose: 400.0 mg/kg/injection, schedule: Q01DX009 (ip), vehicle: other 98 % of control

CCOC(=O)c1nc(NC)sc1N
inactive: dose: 12.5 mg/kg/injection, schedule: Q01DX009 (ip), vehicle: saline 98 % of control | dose: 25.0 mg/kg/injection, schedule: Q01DX009 (ip), vehicle: saline 104 % of control | [9] 97 % of control and 98 % of control | [1] 102 % of control | [2] 100 % of control

CN(C(=O)c1ccc([N+](=O)[O-])cc1)C(c1ccco1)P(=O)(c1ccccc1)c1ccccc1 (stereo not given)
inactive: [10] 90 % of control | dose: 100.0 mg/kg/injection, schedule: Q04DX002 (ip), vehicle: saline with Tween-80 96 % of control | [11] 87 % of control | dose: 200.0 mg/kg/injection, schedule: Q04DX002 (ip), vehicle: saline with Tween-80 86 % of control | dose: 400.0 mg/kg/injection, schedule: Q01DX009 (ip), vehicle: saline with Tween-80 90 % of control | dose: 400.0 mg/kg/injection, schedule: Q04DX002 (ip), vehicle: saline with Tween-80 93 % of control

COc1cc([N+](=O)[O-])c(C)cc1NCc1ccc(OC)c(OC)c1
inactive: [9] 96 % of control | dose: 100.0 mg/kg/injection, schedule: Q01DX009 (ip), vehicle: saline 94 % of control | [1] 97 % of control | dose: 200.0 mg/kg/injection, schedule: Q01DX009 (ip), vehicle: saline 91 % of control | [2] 98 % of control | dose: 400.0 mg/kg/injection, schedule: Q01DX009 (ip), vehicle: saline 94 % of control | [3] 89 % of control

O=c1[nH][nH]c(=S)c(=O)[nH]1
inactive: [12] 102 % of control | [13] 98 % of control | [14] 104 % of control

O=C(C1=Cc2ccccc2OC1)N1CCN(C(=O)C2=Cc3ccccc3OC2)CC1
inactive: [6] 100 % of control | [7] 97 % of control | [8] 95 % of control

CCN(CC)CCNc1cc(C)nc(/N=C(\N)Nc2ccc(OCc3ccccc3)cc2)n1
inactive: dose: 6.25 mg/kg/injection, schedule: Q01DX009 (ip), vehicle: saline with Tween-80 100 % of control | dose: 6.25 mg/kg/injection, schedule: Q04DX003 (ip), vehicle: saline with Tween-80 103 % of control | dose: 12.5 mg/kg/injection, schedule: Q01DX009 (ip), vehicle: saline with Tween-80 98 % of control | dose: 12.5 mg/kg/injection, schedule: Q04DX003 (ip), vehicle: saline with Tween-80 101 % of control | dose: 25.0 mg/kg/injection, schedule: Q04DX003 (ip), vehicle: saline with Tween-80 103 % of control

CC1CCCC(Oc2nc3c(c(=O)n(C)c(=O)n3C)n2C)C1 (stereo not given)
inactive: dose: 50.0 mg/kg/injection, schedule: Q01DX001 (ip), vehicle: other 93 % of control | [15] 93 % of control | [16] 88 % of control | dose: 400.0 mg/kg/injection, schedule: Q01DX001 (ip), vehicle: other 95 % of control

CCOc1cc(S(N)(=O)=O)ccc1Cl
inactive: [17] 89 % of control | [18] 93 % of control | [19] 96 % of control

CCCCCCCCC/C=N\N=C(N)N
inactive: dose: 15.0 mg/kg/injection, schedule: Q01DX Z (ip), vehicle: carboxymethylcellulose (CMC) 101 % of control | dose: 30.0 mg/kg/injection, schedule: Q01DX Z (ip), vehicle: carboxymethylcellulose (CMC) 108 % of control | dose: 60.0 mg/kg/injection, schedule: Q01DX Z (ip), vehicle: carboxymethylcellulose (CMC) 97 % of control | dose: 120.0 mg/kg/injection, schedule: Q01DX Z (ip), vehicle: carboxymethylcellulose (CMC) 103 % of control and 104 % of control | dose: 120.0 mg/kg/injection, schedule: Q01DX Z (oral), vehicle: carboxymethylcellulose (CMC) 104 % of control | dose: 240.0 mg/kg/injection, schedule: Q01DX Z (ip), vehicle: carboxymethylcellulose (CMC) 100 % of control | dose: 240.0 mg/kg/injection, schedule: Q01DX Z (oral), vehicle: carboxymethylcellulose (CMC) 104 % of control | dose: 480.0 mg/kg/injection, schedule: Q01DX Z (oral), vehicle: carboxymethylcellulose (CMC) 102 % of control | dose: 960.0 mg/kg/injection, schedule: Q01DX Z (oral), vehicle: carboxymethylcellulose (CMC) 104 % of control

COc1ccc2c(c1)CCNC2CCO (stereo not given)
inactive: [1] 103 % of control

CCCC(C(=O)O)C(O)(CC(=O)O)C(=O)O (stereo not given)
inactive: [1] 101 % of control | [2] 101 % of control | [3] 95 % of control

C/C=C/C(=O)OCC (tested in a mixture with another compound)
inactive: dose: 50.0 mg/kg/injection, schedule: Q01DX009 (ip), vehicle: saline with Tween-80 97 % of control | [10] 93 % of control | [11] 93 % of control

CCOc1cc(C)c2cccc(C)c2n1
inactive: dose: 100.0 mg/kg/injection, schedule: Q01DX001 (ip), vehicle: carboxymethylcellulose (CMC) 88 % of control | [15] 95 % of control | dose: 200.0 mg/kg/injection, schedule: Q01DX001 (ip), vehicle: carboxymethylcellulose (CMC) 96 % of control | [16] 106 % of control | dose: 400.0 mg/kg/injection, schedule: Q01DX001 (ip), vehicle: carboxymethylcellulose (CMC) 98 % of control

COc1cc(Cc2cnc(N)nc2N)cc(OC)c1OC
inactive: dose: 50.0 mg/kg/injection, schedule: Q01DX001 (ip), vehicle: saline 101 % of control | [12] 92 % of control | [13] 100 % of control | [14] 97 % of control

Nc1nc2c(ncn2-c2ccc(OCCCOc3ccc(S(=O)(=O)F)cc3)cc2)c(=O)[nH]1
inactive: dose: 100.0 mg/kg/injection, schedule: Q01DX001 (ip), vehicle: Klucel (hydroxypropylcellulose) (HPC) 94 % of control | dose: 200.0 mg/kg/injection, schedule: Q01DX001 (ip), vehicle: Klucel (hydroxypropylcellulose) (HPC) 91 % of control

O=S(=O)(CCCCCl)Nc1ccc(NS(=O)(=O)CCCCCl)cc1
inactive: [17] 102 % of control | [6] 97 % of control | [18] 92 % of control | [7] 90 % of control | [19] 92 % of control | [8] 92 % of control

CC1(C)CCC(NC(=O)NCCF)CC1
inactive: dose: 9.5 mg/kg/injection, schedule: Q01DX001 (ip), vehicle: other 95 % of control | dose: 19.0 mg/kg/injection, schedule: Q01DX001 (ip), vehicle: other 102 % of control | dose: 38.0 mg/kg/injection, schedule: Q01DX001 (ip), vehicle: other 101 % of control

CCOC(=O)c1ccccc1N(O)C(=O)NC12CC3CC(CC(C3)C1)C2
inactive: [6] 94 % of control | [7] 94 % of control | [8] 94 % of control

CCCCSP(=S)(OCC)OCC
inactive: [6] 101 % of control | [7] 88 % of control

C/C=C/C[P+](c1ccccc1)(c1ccccc1)c1cccc2ccccc12
inactive: dose: 25.0 mg/kg/injection, schedule: Q04DX002 (ip), vehicle: saline with Tween-80 94 % of control
